Earlier results on one compound are cited in paper PMC10035389, “Safety, Tolerability, and Pharmacokinetics of TAK-931, a Cell Division Cycle 7 Inhibitor, in Patients with Advanced Solid Tumors: A Phase I First-in-Human Study” (Cancer Research Communications, 2022).

This series concerns patients with advanced solid tumors. The note with it: human, in vivo; cited from earlier work.

Take `C[C@@]1(c2ncncc2F)NC(=O)c2cc(-c3cn[nH]c3)ccc21` [LY3143921]: the “Rate of drug-related orthostatic hypotension” value is 50%.
